# Publication PMC8998611, “Identification of Novel GSK-3β Hits Using Competitive Biophysical Assays” (International Journal of Molecular Sciences, 2022)
# What was measured:
# CDKs = test: Eurofins Kinase Diversity Panel, CDKs; assay type: biochemical, human; settings: 20 µM compound; ATP at Km ± 15 µM
# Procedure: (§1) To further characterize the inhibitory activity of the two selected fragments, the selectivity of G5 and G12 towards a panel of 58 kinases of the humane proteome was evaluated using the “Kinase screening and profiling” service of Eurofins, Luxembourg (Kinase Diversity Panel). […] Results are reported in Supplementary Figures S2 and S3.
# GSK-3β [1] = molecular target: T1, GSK-3β (Homo sapiens, UniProt P49841); test: 19F T2 filter NMR ligand-based binding experiments; design: made in house; host or cells: Sf9 cells; settings: in presence of GSK-3β and 1 mM or 3 mM AMP-PNP
# Procedure: GSK-3β was pre-incubated at room temperature for 10 min in the presence of 1 mM AMP-PNP before addition to the mixtures. […] On the contrary, NMR signals of the non-binding molecules were not affected by the presence of the target protein. Molecules selected from this first NMR screening were then tested as a single compound under the same screening conditions in the presence of two non-binding compounds as negative controls. The promising compounds, still showing binding to GSK-3β when tested as singles, were retested also in the presence of 3 mM AMP-PNP (among these, G5 and G12, whose NMR spectra are reported in Figure 2a,b, respectively). […] These hits were then further analyzed and characterized through different biophysical approaches.
# All NMR screening experiments were recorded at 298 K with a Bruker FT NMR Avance III 600 MHz spectrometer, equipped with a 5 mm CryoProbe™ QCI ^1H/^19F–^13C/^15N–D with an automatic sample changer SampleJet™ with temperature control. All GSK-3β experiments were performed at low enzyme concentration (750 nM/1 μM) in 60 mM Hepes pH 7.5, 25 mM NaCl, 10 mM MgCl2, 2 mM TCEP, 8% D2O (for lock signal), 0.003% Triton X-100 (for the coating of NMR tube wall). […]
# GSK-3β [2] = molecular target: T1, GSK-3β; test: MicroScale Thermophoresis (MST) binding to fluorescently labeled GSK-3β; design: made in house; host or cells: Sf9 cells; settings: for MST binding check, displacement assay: preincubation with 3 mM AMP-PNP, data not shown
# Procedure: MicroScale Thermophoresis (MST) experiments were conducted in triplicate on a Monolith NT.115 Pico system (NanoTemper Technologies, Munich, Germany).
# The MST technique was used both for hit binding and for affinity (kd) determination.
# GSK-3β was labeled with the His-tag RED-tris-NTA label 2nd generation (Nanotemper Technologies) following Nanotemper technology protocol. The 100 nM stock labeled protein solution was used at 20 nM concentration to roughly start from 7000 fluorescence counts in each screening experiment.
# GSK-3β was labelled also using RED-NHS ammine dye (Nanotemper Technologies) following the manufacturer’s protocol. The obtained ammine-labeled protein was used at 20 nM concentration to roughly start the experiments from 6000 fluorescence counts.
# Binding tests were performed on eight capillaries with a constant concentration of the labeled protein (20 nM), to detect the effect induced by the compounds on the fluorescence signal (in the presence or absence of 3 mM AMP-PNP). Protein in assay buffer in the presence of 5% DMSO was the negative control.
# Assay buffer: Phosphate buffer 0.1 M pH 7.2, 5 mM MgCl2, 0.001% Tween80, 0.1% PEG8000. Experiments were performed in triplicates. Data elaboration and plots were performed using MO.Control Nanotemper software.
# AMPK1α = molecular target: T2, AMPK1α (Homo sapiens, UniProt Q13131); test: Eurofins Kinase Diversity Panel, AMPK1α; assay type: biochemical; settings: 20 µM compound; ATP at Km ± 15 µM
# T2 construct: purchased Eurofins (Kinase Diversity Panel service)
# Procedure: as §1
# LOK1 = molecular target: T3, LOK1 (Homo sapiens, UniProt O94804); test: Eurofins Kinase Diversity Panel, LOK1; assay type: biochemical; settings: 20 µM compound; ATP at Km ± 15 µM; read-out: inhibitory effect on LOK1
# T3 construct: purchased Eurofins (Kinase Diversity Panel service)
# Procedure: as §1
# MEK1 = molecular target: T4, MEK1 (Homo sapiens, UniProt Q02750); test: Eurofins Kinase Diversity Panel, MEK1; assay type: biochemical; settings: 20 µM compound; ATP at Km ± 15 µM
# T4 construct: purchased Eurofins (Kinase Diversity Panel service)
# Procedure: as §1
# SAPK2a = molecular target: T5, SAPK2a (Homo sapiens, UniProt Q16539); test: Eurofins Kinase Diversity Panel, SAPK2a; assay type: biochemical; settings: 20 µM compound, ATP at Km ± 15 µM
# T5 construct: purchased Eurofins (Kinase Diversity Panel service)
# Procedure: as §1
# ABL = molecular target: T6, ABL (Homo sapiens, UniProt P00519); test: Eurofins Kinase Diversity Panel, ABL; assay type: biochemical; settings: 20 µM compound; ATP at Km ± 15 µM
# T6 construct: purchased Eurofins (Kinase Diversity Panel service)
# Procedure: as §1
# MLK1 = molecular target: T7, MLK1 (Homo sapiens, UniProt P80192); test: Eurofins Kinase Diversity Panel, MLK1; assay type: biochemical; settings: 20 µM compound; ATP at Km ± 15 µM
# T7 construct: purchased Eurofins (Kinase Diversity Panel service)
# Procedure: as §1
# TAK1 = molecular target: T8, TAK1 (Homo sapiens, UniProt O43318); test: Eurofins Kinase Diversity Panel, TAK1; assay type: biochemical; settings: 20 µM compound; ATP at Km ± 15 µM; read-out: inhibitory effect on TAK1
# T8 construct: purchased Eurofins (Kinase Diversity Panel service)
# T8 sequence (O43318 1-303 limits assumed): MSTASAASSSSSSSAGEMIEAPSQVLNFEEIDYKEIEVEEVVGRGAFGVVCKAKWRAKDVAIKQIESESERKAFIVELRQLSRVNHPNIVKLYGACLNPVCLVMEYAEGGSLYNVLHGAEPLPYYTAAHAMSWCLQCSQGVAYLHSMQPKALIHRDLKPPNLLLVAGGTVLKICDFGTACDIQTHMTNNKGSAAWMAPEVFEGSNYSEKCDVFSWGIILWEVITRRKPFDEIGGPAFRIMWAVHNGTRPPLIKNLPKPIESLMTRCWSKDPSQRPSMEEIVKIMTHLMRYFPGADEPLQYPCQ
# Procedure: as §1
# CDK9 = molecular target: T9, CDK9 (Homo sapiens, UniProt P50750); test: Eurofins Kinase Diversity Panel, CDK9; assay type: biochemical; settings: 20 µM compound; ATP at Km ± 15 µM; read-out: inhibitory effect on CDK9
# T9 construct: purchased Eurofins (Kinase Diversity Panel service)
# Procedure: as §1
# T1 sequence (P49841 whole entry): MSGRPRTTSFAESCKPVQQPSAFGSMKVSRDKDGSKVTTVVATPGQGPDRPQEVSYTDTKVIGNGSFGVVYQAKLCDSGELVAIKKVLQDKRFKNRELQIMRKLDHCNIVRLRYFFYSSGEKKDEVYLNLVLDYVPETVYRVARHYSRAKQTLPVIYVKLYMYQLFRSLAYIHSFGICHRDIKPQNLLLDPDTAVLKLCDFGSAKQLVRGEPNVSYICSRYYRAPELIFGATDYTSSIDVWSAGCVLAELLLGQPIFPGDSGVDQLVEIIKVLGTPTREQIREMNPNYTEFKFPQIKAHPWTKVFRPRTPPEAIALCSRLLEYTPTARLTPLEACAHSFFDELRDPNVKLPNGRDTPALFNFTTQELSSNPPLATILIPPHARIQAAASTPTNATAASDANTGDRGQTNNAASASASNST
# T5 sequence (Q16539 whole entry): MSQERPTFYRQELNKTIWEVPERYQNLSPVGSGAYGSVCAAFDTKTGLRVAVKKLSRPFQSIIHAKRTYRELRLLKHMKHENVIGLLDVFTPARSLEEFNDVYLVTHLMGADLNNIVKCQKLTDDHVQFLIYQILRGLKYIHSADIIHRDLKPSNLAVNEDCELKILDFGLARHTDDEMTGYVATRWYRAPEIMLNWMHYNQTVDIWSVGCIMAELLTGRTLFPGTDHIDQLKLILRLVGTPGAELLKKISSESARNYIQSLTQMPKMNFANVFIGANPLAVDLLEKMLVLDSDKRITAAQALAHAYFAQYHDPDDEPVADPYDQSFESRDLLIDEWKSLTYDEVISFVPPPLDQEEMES
# T4 sequence (Q02750 whole entry): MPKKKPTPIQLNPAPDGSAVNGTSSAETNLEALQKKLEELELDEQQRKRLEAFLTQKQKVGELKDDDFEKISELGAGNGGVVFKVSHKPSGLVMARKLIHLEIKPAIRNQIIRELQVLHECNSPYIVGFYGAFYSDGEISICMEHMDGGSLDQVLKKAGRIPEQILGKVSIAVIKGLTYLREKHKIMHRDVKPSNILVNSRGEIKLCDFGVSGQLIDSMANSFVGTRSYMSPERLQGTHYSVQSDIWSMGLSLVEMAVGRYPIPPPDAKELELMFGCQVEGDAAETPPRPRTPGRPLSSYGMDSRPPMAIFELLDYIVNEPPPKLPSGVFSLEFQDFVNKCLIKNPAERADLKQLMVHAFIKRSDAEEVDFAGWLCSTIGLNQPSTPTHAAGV
# T3 sequence (O94804 whole entry): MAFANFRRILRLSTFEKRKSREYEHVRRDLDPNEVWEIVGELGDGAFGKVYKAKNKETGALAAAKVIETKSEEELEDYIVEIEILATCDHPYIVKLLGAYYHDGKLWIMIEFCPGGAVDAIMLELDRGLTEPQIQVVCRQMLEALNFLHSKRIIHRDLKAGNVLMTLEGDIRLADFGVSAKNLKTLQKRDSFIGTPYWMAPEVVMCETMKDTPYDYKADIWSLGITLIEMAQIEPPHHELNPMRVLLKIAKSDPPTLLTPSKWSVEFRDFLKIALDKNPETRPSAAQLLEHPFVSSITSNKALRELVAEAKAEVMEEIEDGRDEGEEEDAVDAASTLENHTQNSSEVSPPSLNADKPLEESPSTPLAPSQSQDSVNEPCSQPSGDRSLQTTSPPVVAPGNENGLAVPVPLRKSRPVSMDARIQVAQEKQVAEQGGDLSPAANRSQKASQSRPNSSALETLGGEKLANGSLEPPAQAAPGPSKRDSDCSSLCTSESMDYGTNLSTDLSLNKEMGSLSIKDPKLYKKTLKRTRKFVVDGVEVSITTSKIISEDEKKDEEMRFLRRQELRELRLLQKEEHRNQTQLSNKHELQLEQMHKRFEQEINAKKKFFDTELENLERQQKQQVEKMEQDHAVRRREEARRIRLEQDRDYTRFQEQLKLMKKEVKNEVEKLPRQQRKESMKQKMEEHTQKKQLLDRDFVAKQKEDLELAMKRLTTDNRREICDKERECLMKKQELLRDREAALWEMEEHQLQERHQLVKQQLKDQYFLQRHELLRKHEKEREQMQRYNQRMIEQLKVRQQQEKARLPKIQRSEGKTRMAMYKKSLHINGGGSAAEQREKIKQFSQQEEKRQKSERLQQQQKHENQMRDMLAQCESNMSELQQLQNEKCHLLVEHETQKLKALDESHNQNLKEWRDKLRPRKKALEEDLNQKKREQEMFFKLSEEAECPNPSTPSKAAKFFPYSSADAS
# T2 sequence (Q13131 whole entry): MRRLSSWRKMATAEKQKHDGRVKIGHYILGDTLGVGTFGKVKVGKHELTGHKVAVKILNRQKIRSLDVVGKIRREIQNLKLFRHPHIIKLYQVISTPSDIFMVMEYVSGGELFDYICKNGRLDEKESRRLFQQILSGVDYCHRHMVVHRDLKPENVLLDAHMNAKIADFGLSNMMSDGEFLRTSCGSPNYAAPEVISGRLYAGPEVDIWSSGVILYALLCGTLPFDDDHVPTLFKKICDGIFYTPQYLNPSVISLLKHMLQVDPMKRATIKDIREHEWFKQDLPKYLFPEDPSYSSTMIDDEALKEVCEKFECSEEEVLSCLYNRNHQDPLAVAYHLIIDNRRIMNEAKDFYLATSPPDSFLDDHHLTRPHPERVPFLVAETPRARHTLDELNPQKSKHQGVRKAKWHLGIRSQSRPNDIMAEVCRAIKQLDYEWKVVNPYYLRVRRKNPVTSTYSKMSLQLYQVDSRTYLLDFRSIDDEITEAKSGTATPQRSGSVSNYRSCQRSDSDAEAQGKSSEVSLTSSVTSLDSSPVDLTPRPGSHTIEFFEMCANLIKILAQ
# T2 sequence (Q9Y478 whole entry partner): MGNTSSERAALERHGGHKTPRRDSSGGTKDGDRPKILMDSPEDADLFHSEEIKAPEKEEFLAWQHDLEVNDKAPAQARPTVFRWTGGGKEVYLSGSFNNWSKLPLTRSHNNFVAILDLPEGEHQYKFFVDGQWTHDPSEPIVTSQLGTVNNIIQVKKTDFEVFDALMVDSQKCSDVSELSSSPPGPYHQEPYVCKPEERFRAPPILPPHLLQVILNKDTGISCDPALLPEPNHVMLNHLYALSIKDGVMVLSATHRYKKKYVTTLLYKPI
# T2 sequence (P54619 whole entry partner): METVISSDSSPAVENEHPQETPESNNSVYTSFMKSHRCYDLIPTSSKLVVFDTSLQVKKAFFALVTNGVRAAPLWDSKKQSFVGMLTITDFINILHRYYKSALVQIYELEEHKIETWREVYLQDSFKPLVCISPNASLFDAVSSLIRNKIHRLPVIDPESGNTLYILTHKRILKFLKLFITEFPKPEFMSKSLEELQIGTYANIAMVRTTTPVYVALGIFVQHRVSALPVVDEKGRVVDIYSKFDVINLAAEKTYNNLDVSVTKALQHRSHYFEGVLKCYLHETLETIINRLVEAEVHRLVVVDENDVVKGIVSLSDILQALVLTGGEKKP
# T6 sequence (P00519 whole entry): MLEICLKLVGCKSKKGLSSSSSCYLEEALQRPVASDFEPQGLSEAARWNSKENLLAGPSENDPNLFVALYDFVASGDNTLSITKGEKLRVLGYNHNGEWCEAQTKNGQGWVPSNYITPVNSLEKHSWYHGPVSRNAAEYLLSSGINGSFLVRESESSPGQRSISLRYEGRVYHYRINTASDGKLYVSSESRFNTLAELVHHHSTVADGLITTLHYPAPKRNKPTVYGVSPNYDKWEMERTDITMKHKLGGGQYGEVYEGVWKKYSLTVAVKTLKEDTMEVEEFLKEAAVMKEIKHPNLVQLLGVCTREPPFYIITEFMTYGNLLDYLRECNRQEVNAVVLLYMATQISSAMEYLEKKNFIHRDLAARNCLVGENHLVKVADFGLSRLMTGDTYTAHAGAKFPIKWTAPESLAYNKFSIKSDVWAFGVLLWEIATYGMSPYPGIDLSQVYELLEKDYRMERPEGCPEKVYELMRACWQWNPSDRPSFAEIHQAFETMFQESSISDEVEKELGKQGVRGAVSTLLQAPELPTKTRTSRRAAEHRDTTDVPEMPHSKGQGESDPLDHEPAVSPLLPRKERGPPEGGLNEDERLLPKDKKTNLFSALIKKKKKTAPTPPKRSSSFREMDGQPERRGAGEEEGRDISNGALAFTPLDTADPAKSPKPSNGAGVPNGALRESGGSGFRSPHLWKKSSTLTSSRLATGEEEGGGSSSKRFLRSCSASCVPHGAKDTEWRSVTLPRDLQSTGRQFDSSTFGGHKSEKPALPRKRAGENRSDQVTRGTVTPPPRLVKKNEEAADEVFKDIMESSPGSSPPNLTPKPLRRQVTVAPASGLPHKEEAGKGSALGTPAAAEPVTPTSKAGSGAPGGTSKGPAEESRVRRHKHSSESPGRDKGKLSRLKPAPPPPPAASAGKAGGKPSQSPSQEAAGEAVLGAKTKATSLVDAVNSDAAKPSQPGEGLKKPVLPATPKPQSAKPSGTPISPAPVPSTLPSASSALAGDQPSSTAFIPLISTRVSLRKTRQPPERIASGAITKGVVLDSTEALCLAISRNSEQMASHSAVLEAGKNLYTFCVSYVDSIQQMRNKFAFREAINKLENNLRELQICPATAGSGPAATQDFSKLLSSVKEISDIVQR
binding by 19F T2 filter NMR (line broadening of signal) (GSK-3β [1]),"MST binding check, displacement assay (GSK-3β [2])",inhibitory effect on AMPK1α (AMPK1α),inhibition at 20 µM (LOK1),inhibitory effect on MEK1 (MEK1),inhibition at 20 µM (SAPK2a; read-out: inhibitory effect on SAPK2a),inhibitory effect on ABL (ABL),"Kd (GSK-3β [2]; complete binding curve, average of three experiments ± SD, read-out: affinity parameter (kd), MST)",inhibitory effect on MLK1 (MLK1),inhibition at 20 µM (TAK1),inhibition at 20 µM (CDK9),inhibitory effect on SAPK2a (SAPK2a),SMILES,inhibitory activity on CDKs (CDKs)
strong line broadening,maintained their ability to bind GSK-3β,only marginally affected,21%,only marginally affected,19%,–,–,–,–,–,–,CS(=O)(=O)N1CC(c2nc(N)ncc2-c2ccc(F)cc2)C1 [G5],did not show any evident inhibitory activity
strong line broadening,maintained their ability to bind GSK-3β,–,–,–,–,no inhibitory effect,66.5 ± 31.8 µM,no inhibition,20%,50%,no inhibitory effect,O=C(Nc1ccccn1)C1CCN(C(=O)CCc2ccccc2F)C1 (stereo not drawn) [G12],–
